According to patent publication US20230203059A1, “MACROCYCLIC JAK INHIBITOR AND USES THEREOF” (Biopolar Hongye (Guangdong) Pharmaceutical Co. Ltd., priority 2020, published 2023):

Key:
Type in all cases: biochemical
JAK1 = JAK1 (Homo sapiens, UniProt P23458); experiment: JAK kinase activity, homogeneous time-resolved fluorescence (JAK1 reaction system); conditions: ATP 2 μM, JAK1 protein 0.2 ng/μL; read-out: JAK 1 activity
Outline: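 HTRF assay: JAK1 (0.2 ng/μL) with 2 μM ATP and substrate in 50 mM Hepes pH 7.0, 5 mM MgCl2, 1 mM DTT, 1 h. Phospho-substrate antibody/XL-615 detection with EDTA; 665/615 nm ratio, excitation 320 nm. IC50 from Hill-type fit against no-enzyme and no-compound controls.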

JAK2 = JAK2 (Homo sapiens, UniProt O60674); experiment: JAK kinase activity, homogeneous time-resolved fluorescence (JAK2 reaction system); conditions: ATP 2 μM, JAK2 protein 0.01 ng/μL
Chain of JAK2 (O60674 whole entry): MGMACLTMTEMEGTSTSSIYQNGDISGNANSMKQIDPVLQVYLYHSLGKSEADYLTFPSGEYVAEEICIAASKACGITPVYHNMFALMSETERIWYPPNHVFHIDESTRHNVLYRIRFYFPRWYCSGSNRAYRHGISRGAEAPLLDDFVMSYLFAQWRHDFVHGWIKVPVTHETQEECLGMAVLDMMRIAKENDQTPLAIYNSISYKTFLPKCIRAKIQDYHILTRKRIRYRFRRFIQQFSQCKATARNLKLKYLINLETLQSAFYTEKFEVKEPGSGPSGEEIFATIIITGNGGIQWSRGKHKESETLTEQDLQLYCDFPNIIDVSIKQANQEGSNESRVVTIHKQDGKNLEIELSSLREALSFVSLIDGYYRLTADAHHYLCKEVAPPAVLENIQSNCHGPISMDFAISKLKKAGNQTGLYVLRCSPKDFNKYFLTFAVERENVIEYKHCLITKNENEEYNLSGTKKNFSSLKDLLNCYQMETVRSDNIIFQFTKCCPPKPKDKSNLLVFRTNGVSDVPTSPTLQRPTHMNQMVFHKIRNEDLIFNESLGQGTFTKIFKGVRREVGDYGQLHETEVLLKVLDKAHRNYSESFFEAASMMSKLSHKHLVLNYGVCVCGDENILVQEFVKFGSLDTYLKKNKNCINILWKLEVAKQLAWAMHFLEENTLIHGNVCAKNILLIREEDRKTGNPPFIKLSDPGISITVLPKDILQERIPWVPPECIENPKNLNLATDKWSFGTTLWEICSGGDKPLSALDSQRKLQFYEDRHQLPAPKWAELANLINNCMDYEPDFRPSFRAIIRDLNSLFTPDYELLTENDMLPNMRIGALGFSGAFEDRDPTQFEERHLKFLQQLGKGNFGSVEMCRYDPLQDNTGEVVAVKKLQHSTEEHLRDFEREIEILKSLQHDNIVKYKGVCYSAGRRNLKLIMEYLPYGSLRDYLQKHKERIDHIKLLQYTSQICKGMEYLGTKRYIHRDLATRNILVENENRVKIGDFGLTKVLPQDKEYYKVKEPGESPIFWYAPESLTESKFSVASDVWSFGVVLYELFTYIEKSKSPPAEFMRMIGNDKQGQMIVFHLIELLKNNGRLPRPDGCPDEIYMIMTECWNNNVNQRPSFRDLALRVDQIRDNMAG
Outline: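 IC50 derived by Hill-equation fit of the 665/615 nm time-resolved fluorescence ratio after EDTA-containing detection mix with anti-phosphosubstrate antibody. Preceding 1 h reaction contained 2 μM ATP, 0.01 ng/μL JAK2, substrate, 50 mM Hepes pH 7.0, 5 mM MgCl2, 1 mM DTT.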

JAK3 = biological target: T1, JAK3 (Homo sapiens, UniProt P52333); experiment: JAK kinase activity, homogeneous time-resolved fluorescence (JAK3 reaction system); conditions: ATP 2 μM, JAK3 protein 0.04 ng/μL; read-out: JAK 3 activity
T1 sequence (P52333 1-1124): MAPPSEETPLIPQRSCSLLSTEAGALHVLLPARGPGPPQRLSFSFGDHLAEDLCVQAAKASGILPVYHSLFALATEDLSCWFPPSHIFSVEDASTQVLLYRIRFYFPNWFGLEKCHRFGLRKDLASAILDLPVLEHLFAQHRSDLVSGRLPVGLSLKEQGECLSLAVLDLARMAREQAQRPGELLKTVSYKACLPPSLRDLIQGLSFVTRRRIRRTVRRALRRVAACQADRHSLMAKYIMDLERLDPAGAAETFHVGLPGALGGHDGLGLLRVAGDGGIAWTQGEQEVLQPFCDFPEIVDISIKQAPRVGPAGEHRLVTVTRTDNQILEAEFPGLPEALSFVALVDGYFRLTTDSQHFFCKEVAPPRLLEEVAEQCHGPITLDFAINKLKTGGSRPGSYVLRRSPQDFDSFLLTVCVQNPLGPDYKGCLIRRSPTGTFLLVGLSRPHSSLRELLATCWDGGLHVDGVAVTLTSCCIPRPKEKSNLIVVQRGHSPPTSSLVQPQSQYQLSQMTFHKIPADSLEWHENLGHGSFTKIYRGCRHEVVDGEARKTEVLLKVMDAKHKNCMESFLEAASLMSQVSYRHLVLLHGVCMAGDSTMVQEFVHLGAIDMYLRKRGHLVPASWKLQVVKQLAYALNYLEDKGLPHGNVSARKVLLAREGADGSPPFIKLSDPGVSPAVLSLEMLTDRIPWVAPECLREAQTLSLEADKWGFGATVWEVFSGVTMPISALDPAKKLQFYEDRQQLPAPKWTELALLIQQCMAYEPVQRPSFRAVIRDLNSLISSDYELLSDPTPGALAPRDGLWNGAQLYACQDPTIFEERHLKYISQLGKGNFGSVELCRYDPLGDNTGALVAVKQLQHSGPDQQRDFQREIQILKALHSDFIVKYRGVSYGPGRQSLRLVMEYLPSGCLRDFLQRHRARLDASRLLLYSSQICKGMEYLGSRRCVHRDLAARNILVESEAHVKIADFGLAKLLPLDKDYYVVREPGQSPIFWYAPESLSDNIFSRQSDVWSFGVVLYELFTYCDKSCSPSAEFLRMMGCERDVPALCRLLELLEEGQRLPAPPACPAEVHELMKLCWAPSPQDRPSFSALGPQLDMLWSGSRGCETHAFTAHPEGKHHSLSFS

TYK2 = TYK2 (Homo sapiens, UniProt P29597); experiment: JAK kinase activity, homogeneous time-resolved fluorescence (TYK2 reaction system); conditions: ATP 2 μM, TYK2 protein 0.2 ng/μL; read-out: TYK 2 activity
Chain of TYK2 (P29597 whole entry): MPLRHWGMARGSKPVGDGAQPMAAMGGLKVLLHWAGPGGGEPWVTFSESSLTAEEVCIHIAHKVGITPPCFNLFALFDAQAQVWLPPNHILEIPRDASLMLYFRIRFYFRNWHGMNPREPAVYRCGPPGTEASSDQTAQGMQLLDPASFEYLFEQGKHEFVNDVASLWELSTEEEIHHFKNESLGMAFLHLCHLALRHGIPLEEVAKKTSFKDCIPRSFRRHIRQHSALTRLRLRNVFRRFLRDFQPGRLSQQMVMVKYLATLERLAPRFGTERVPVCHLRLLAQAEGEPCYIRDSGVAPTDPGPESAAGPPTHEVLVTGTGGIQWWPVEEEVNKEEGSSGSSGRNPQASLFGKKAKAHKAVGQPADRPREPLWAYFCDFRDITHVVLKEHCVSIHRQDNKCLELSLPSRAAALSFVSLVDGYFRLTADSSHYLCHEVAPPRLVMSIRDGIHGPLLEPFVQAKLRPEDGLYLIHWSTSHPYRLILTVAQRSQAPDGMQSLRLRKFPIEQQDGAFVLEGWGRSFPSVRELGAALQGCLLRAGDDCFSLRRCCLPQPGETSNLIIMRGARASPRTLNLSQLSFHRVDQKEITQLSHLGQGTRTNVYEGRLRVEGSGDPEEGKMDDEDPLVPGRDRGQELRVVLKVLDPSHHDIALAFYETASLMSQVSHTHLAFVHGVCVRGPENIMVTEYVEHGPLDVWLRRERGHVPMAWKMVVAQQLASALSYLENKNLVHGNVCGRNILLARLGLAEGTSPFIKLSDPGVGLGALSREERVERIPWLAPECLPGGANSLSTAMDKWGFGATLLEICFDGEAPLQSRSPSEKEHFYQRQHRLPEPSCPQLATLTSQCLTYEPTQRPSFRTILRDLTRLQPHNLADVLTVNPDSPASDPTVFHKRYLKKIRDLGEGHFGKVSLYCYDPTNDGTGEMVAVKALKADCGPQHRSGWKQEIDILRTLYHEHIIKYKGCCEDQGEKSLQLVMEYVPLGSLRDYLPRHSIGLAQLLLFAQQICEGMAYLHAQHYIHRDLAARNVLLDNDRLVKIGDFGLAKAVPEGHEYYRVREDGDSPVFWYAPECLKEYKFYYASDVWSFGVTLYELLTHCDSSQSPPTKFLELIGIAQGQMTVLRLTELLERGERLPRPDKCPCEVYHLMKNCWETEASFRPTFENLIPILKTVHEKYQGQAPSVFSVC
Outline: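 Activity read as the 665 nm/615 nm ratio after adding EDTA-containing detection mix with anti-phospho-substrate antibody and XL-615. Beforehand, 0.2 ng/μL TYK2, 2 μM ATP, substrate and compound reacted 1 h in pH 7.0 Hepes buffer with MgCl2 and DTT. IC50 fitted with Hill-slope equation.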

Chain of JAK1 (P23458 whole entry): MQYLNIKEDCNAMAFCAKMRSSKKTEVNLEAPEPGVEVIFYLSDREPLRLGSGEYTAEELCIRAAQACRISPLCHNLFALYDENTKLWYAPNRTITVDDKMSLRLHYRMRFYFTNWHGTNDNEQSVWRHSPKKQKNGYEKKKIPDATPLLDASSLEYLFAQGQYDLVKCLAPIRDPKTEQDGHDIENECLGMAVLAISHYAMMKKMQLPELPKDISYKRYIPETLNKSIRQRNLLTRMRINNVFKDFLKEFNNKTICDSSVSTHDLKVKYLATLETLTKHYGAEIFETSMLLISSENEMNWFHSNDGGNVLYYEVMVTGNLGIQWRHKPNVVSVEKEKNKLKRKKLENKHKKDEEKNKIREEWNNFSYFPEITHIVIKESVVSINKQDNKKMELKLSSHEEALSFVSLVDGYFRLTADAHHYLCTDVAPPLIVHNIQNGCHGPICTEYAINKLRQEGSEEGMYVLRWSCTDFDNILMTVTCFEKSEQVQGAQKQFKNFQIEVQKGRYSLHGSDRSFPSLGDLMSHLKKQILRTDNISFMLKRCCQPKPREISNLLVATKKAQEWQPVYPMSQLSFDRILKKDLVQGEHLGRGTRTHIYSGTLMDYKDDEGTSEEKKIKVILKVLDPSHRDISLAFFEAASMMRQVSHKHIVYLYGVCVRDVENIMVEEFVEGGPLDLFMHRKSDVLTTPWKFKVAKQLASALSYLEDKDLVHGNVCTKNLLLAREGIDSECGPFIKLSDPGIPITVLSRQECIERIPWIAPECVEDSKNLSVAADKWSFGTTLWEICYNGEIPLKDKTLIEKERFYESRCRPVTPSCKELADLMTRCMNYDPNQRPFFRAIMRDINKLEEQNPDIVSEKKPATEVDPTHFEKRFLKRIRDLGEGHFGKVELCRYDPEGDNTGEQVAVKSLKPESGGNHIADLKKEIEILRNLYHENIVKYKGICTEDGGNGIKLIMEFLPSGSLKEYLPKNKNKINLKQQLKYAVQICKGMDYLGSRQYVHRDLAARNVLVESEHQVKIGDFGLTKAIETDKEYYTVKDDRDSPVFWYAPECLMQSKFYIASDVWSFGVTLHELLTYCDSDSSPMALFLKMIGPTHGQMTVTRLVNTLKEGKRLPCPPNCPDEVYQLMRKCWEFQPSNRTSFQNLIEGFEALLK

Molecule | IC50 (JAK1) [nM] | IC50 (JAK2) [nM] | IC50 (JAK3) [nM] | IC50 (TYK2) [nM]
Nc1cc2ccc1-c1ccnc(n1)Nc1ccc(OCC3Cc4ccccc4C3)c(c1)COCCCCNC2=O [Example 123, 1^2-amino-4^4-((2,3-dihydro-1H-inden-2-yl)methoxy)-6-oxa-3,11-diaza-2(4,2)-pyrimidina-1(1,4),4(1,3)-dibenzenacyclododecaphan-12-one] | 1000 to 10000 | 1000 to 10000 | 11 to 100 | 1000 to 10000
CNc1cc2ccc1-c1ccnc(n1)Nc1ccc(OC3CC3)c(c1)COCCCCNC2=O [Example 82, 4^4-cyclopropoxy-1^2-methylamino-6-oxa-3,11-diaza-2(4,2)-pyrimidina-1(1,4),4(1,3)-dibenzenacyclododeca-phan-12-one] | 1000 to 10000 | 1000 to 10000 | 1000 to 10000 | > 10000
O=C1NCCCCOCc2cc(ccc2N2CCOCC2)Nc2nccc(n2)-c2ccc1cc2Cl [Example 30, 1^2-chloro-4^4-morpholin-6-oxa-3,11-diaza-2(4,2)-pyrimidina-1(1,4),4(1,3)-dibenzenacyclododecaphan-12-one] | 101 to 1000 | 11 to 100 | 11 to 100 | 101 to 1000
CC(C)Oc1c(F)cc2cc1COCCCCNC(=O)c1ccc(c(N)c1)-c1ccnc(n1)N2 [Example 85, 1^2-amino-4^5-fluoro-4^4-isopropoxy-6-oxa-3,11-diaza-2(4,2)-pyrimidina-1(1,4),4(1,3)-dibenzenacyclododeca-phan-12-one] | 101 to 1000 | 101 to 1000 | 11 to 100 | > 10000
CC1CCNC(=O)c2ccc(c(N)c2)-c2ccnc(n2)Nc2ccc(Oc3cccnc3)c(c2)COC1 (stereo not shown) [Example 130, 1^2-amino-8-methyl-4^4-(pyridin-3-oxy)-6-oxa-3,11-diaza-2(4,2)-pyri-midina-1(1,4),4(1,3)-dibenzenacyclo-dodecaphan-12-one] | 1000 to 10000 | 101 to 1000 | 11 to 100 | > 10000
O=C1NCCCCOCc2cc(ccc2N2CCOCC2)Nc2nccc(n2)-c2ccc1cc2[N+](=O)[O-] [Example 24, 1^2-nitro-4^4-morpholin-6-oxa-3,11-di-aza-2(4,2)-pyrimidina-1(1,4),4(1,3)-dibenzenacyclododecaphan-12-one] | 1000 to 10000 | 1000 to 10000 | 101 to 1000 | 1000 to 10000
Cc1cnc2nc1-c1ccc(cc1)C(=O)NCCCCOCc1cc(ccc1N1CCOCC1)N2 [Example 5, 2^5-methyl-4^4-morpholin-6-oxa-3,11-diaza-2(4,2)-pyrimidina-1(1,4),4(1,3)-dibenzenacyclododecaphan-12-one] | 11 to 100 | 11 to 100 | 11 to 100 | 11 to 100
O=C1NCCCCOCc2cc(ccc2N2CCOCC2)Nc2nccc(n2)-c2ccc1cc2F [Example 4, 1^2-fluoro-4^4-morpholin-6-oxa-3,11-diaza-2(4,2)-pyrimidina-1(1,4),4(1,3)-dibenzenacyclododecaphan-12-one] | 1000 to 10000 | 101 to 1000 | 11 to 100 | 101 to 1000
CN(C)c1cc2ccc1-c1ccnc(n1)Nc1ccc(OC3CC3)c(c1)COCCCCNC2=O [Example 83, 4^4-cyclopropxy-1^2-dimethylamino-6-oxa-3,11-diaza-2(4,2)-pyrimidina-1(1,4),4(1,3)-dibenzenacyclododeca-phan-12-one] | 1000 to 10000 | 1000 to 10000 | > 10000 | > 10000

More lines, now with the values ahead:

IC50 (JAK1) [nM] | IC50 (JAK2) [nM] | IC50 (JAK3) [nM] | IC50 (TYK2) [nM] | Molecule
> 10000 | > 10000 | 1000 to 10000 | > 10000 | O=C1NCCCCOCc2cc(ccc2OCC2CCc3ccccc32)Nc2nccc(n2)-c2ccc1cc2[N+](=O)[O-] (stereo not shown) [Example 133, 4^4-((2,3-dihydro-1H-inden-1-yl)methoxy)-1^2-nitro-6-oxa-3,11-diaza-2(4,2)-pyrimidina-1(1,4),4(1,3)-dibenzenacyclododecaphan-12-one]
101 to 1000 | 101 to 1000 | 11 to 100 | 1000 to 10000 | Nc1cc2ccc1-c1ccnc(n1)Nc1ccc(OCC3CCOC3)c(c1)COc1ccc(cc1)NC2=O (stereo not shown) [Example 211, 1^2-amino-4^4-((tetrahydrofuran-3-yl)methoxy)-6-oxa-3,8-diaza-2(4,2)-py-rimidina-1,7(1,4),4(1,3)-tribenzena-cyclononaphane-9-one]
1000 to 10000 | 101 to 1000 | 11 to 100 | > 10000 | COc1cc(F)cc(C#N)c1COc1ccc2cc1COCCCCNC(=O)c1ccc(c(N)c1)-c1ccnc(n1)N2 [Example 194, 2-(((1^2-amino-12-oxo-6-oxo-3,11-diaza-2(4,2)-pyrimidina-1(1,4),4(1,3)-dibenzenacyclododecaphan-4^4-yl)oxy)methyl)-5-fluoro-3-methoxy-benzonitrile]
1000 to 10000 | 101 to 1000 | 11 to 100 | 1000 to 10000 | Nc1cc2ccc1-c1ccnc(n1)Nc1ccc(OCC3Cc4ccccc4O3)c(c1)COCCCCNC2=O (stereo not shown) [Example 155, 1^2-amino-4^4-((2,3-dihydroxybenzo-furan-2-yl)methoxy)-6-oxa-3,11-di-aza-2(4,2)-pyrimidina-1(1,4),4(1,3)-dibenzenacyclododecaphan-12-one]
> 10000 | > 10000 | 1000 to 10000 | > 10000 | 4^4-((1,3-dihydroisobenzofuran-4- yl)methoxy)-1^2-nitro-6-oxa-3,11-di- aza-2(4,2)-pyrimidina-1(1,4),4(1,3)- dibenzenacyclododecaphan-12- one [Example 159]
1000 to 10000 | 101 to 1000 | 11 to 100 | 1000 to 10000 | COc1cc(F)cc(F)c1COc1ccc2cc1COCC[C@@H](C)CNC(=O)c1ccc(c(N)c1)-c1ccnc(n1)N2 [Example 188, (R)-1^2-amino-4^4-((2,4-difluoro-6-methoxybenzyl)oxy)-9-methyl-6-o-xa-3,11-diaza-2(4,2)-pyrimidina-1(1,4),4(1,3)-dibenzenacyclo-dodecaphan-12-one]
1000 to 10000 | 101 to 1000 | 11 to 100 | 1000 to 10000 | Nc1cc2ccc1-c1ccnc(n1)Nc1ccc(OCc3cccc4c3CCO4)c(c1)COCCCCNC2=O [Example 151, 1^2-amino-4^4-((2,3-dihydrobenzofu-ran-4-yl)methoxy)-6-oxa-3,11-dia-za-2(4,2)-pyrimidina-1(14),4(1,3)-dibenzenacyclododecaphan-12-one]
1000 to 10000 | 101 to 1000 | < 10 | 1000 to 10000 | CC1CCNC(=O)c2ccc(c(N)c2)-c2ccnc(n2)Nc2ccc(OC3CCCOC3)c(c2)COC1 (stereo not shown) [Example 138]
1000 to 10000 | 1000 to 10000 | 101 to 1000 | > 10000 | O=C1NCCCCOCc2cc(ccc2OCC2Cc3ccccc3O2)Nc2nccc(n2)-c2ccc1cc2[N+](=O)[O-] (stereo not shown) [Example 154, 4^4-((2,3-dihydroxybenzofuran-2-yl)methoxy)-1^2-nitro-6-oxa-3,11-diaza-2(4,2)-pyrimidina-1(1,4),4(1,3)-dibenzenacyclododecaphan-12-one]
1000 to 10000 | 1000 to 10000 | 101 to 1000 | 1000 to 10000 | CC1(C)CCOCc2cc(ccc2OC2CCCOC2)Nc2nccc(n2)-c2ccc(cc2N)C(=O)NC1 (stereo not shown) [Example 170, 1^2-amino-9,9-dimethyl-4^4-((tetra-hydroxy-2H-pyran-3-yl)oxy)-6-oxa-3,11-diaza-2(4,2)-pyrimidina-1(1,4),4(1,3)-dibenzenacyclododecaphan-12-one]
